Melting point and solubility data for 33 molecules are collected here from article PMC6270516 (Molecules, 2013).

In brackets after ≈: the same amount, converted by molar mass. Some results are limits rather than exact numbers.

Data set [1] in a line: physchem. As to conditions: simulated gastric fluid.
The nature of data set [2]: physchem. As to conditions: fassgf or other biorelevant.

As to `CN1c2ccccc2C(=O)N2CCc3c(n(CCOCCOCCCl)c4ccccc34)C21` (centres unmarked), the melting point is 126 to 128 °C.

Molecule `CN1c2ccccc2C(=O)N2CCc3c(n(CCCBr)c4ccccc34)C21` (centres unmarked) gave a melting point of 130 to 132 °C.

In the case of `CN1c2ccccc2C(=O)N2CCc3c(n(CCO)c4ccccc34)C21` (centres unmarked) [4-1, N13-(2-Hyroxyethyl)evodiamine], the melting point is 166 to 168 °C. Moreover, in “physchem [1]”, the solubility is more than 220 µg/mL. The molecule further came in with a solubility in the data set “physchem [2]” of 320 µg/mL (≈ 921 µM).

Molecule `CCCCCCCCn1c2c(c3ccccc31)CCN1C(=O)c3ccccc3N(C)C21` (centres unmarked) [2-5, N13-Octylevodiamine] showed a melting point of 65 to 67 °C. In “physchem [1]”, this molecule came in with a solubility of 30 µg/mL (≈ 72.2 µM). This molecule gave a solubility in “physchem [2]” of 72.3 µg/mL (≈ 174 µM).

`CN1c2ccccc2C(=O)N2CCc3c(n(CCCC(=O)O)c4ccccc34)C21` (centres unmarked) [compound 5, 4-(Evodiamin-N13-yl)butyric acid]: the melting point is 234 °C (dec.). For the same molecule, the concentration in solution in the data set “physchem [1]” (solubility) came to 60 µg/mL (≈ 154 µM). In the data set “physchem [2]”, this molecule came in with a solubility of 154 µg/mL (≈ 395 µM).

In the case of `CN1c2ccccc2C(=O)N2CCc3c(n(CC(=O)c4ccccc4)c4ccccc34)C21` (centres unmarked) [2-13, N13-(Benzonylmethyl)evodiamine], the melting point was 245 °C (dec.). For the same molecule, the solubility in the data set “physchem [1]” is 30 to 60 µg/mL (≈ 71.2 to 142 µM). Also, the solubility in the data set “physchem [2]” lay within 73.7 to 147 µg/mL (≈ 175 to 349 µM).

Molecule `CCCCCn1c2c(c3ccccc31)CCN1C(=O)c3ccccc3N(C)C21` (centres unmarked) [2-3, N13-Pentylevodiamine] had a melting point of 143 to 145 °C. In addition, the solubility in “physchem [1]” was 60 to 120 µg/mL (≈ 161 to 321 µM). The molecule further gave a solubility in the data set “physchem [2]” of 322 µg/mL (≈ 862 µM).

Turning to `CC(=O)OCCCn1c2c(c3ccccc31)CCN1C(=O)c3ccccc3N(C)C21` (centres unmarked) [2-20, N13-(3-Acetoxypropyl)evodiamine], the results for the solubility in the data set “physchem [1]” and in “physchem [2]” were more than 120 µg/mL and 278 µg/mL (≈ 689 µM), respectively.

In turn, `CN1c2ccccc2C(=O)N2CCc3c(n(CCCCl)c4ccccc34)C21` (centres unmarked) [2-9, N13-(3-Chloropropyl)evodiamine] showed a melting point of 118 to 120 °C. The molecule also returned a solubility in the data set “physchem [1]” of 60 to 120 µg/mL (≈ 158 to 316 µM). In “physchem [2]”, this molecule had a solubility of 322 µg/mL (≈ 848 µM).

Take `CC(C)=CCn1c2c(c3ccccc31)CCN1C(=O)c3ccccc3N(C)C21` (centres unmarked) [2-4, N13-(3-Methyl-2-butenyl)evodiamine]: the results for the solubility in the data set “physchem [1]” and in the data set “physchem [2]” were 60 µg/mL (≈ 162 µM) and 162 µg/mL (≈ 436 µM), respectively.

In the case of `CN1c2ccccc2C(=O)N2CCc3c(n(CCCCCCn4c5c(c6ccccc64)CCN4C(=O)c6ccccc6N(C)C54)c4ccccc34)C21` (centres unmarked) [3-2, N1,6-Bis-(evodiamin-N13-yl)hexane], the melting point was in the range of 131 to 133 °C. Moreover, in “physchem [1]”, the solubility was more than 120 µg/mL. The solubility in “physchem [2]” was more than 320 µg/mL.

As for `CCCOC(=O)Cn1c2c(c3ccccc31)CCN1C(=O)c3ccccc3N(C)C21` (centres unmarked) [2-27, N13-(Propoxycarbonylmethyl)evodiamine], the melting point was in the range of 168 to 170 °C. The molecule also came in with a solubility in “physchem [1]” of 72.9 µg/mL (≈ 181 µM). In the data set “physchem [2]”, this molecule yielded a solubility of 132 µg/mL (≈ 326 µM).

`CC(C)Cn1c2c(c3ccccc31)CCN1C(=O)c3ccccc3N(C)C21` (centres unmarked) [2-7, N13-Isobutylevodiamine] showed a melting point of 154 to 156 °C. In addition, the solubility in the data set “physchem [1]” is more than 110 µg/mL. Further, the solubility in the data set “physchem [2]” was more than 310 µg/mL.

Take `CON=CCn1c2c(c3ccccc31)CCN1C(=O)c3ccccc3N(C)C21` (centres unmarked) [6-2, 2-(Evodiamin-N13-yl)acetaldehyde O-methyl oxime]: the melting point was 216 °C (dec.). The amount in solution in the data set “physchem [1]” (solubility) came to 60 µg/mL (≈ 160 µM). In “physchem [2]”, the solubility was 160 µg/mL (≈ 428 µM).

`CCCCOCCn1c2c(c3ccccc31)CCN1C(=O)c3ccccc3N(C)C21` (centres unmarked) [2-15, N13-(2-Butoxyethyl)evodiamine] gave a melting point of 68 to 70 °C. Also, the solubility in “physchem [1]” is 30 to 120 µg/mL (≈ 74.3 to 297 µM). The molecule further gave a solubility in the data set “physchem [2]” of 74.4 to 298 µg/mL (≈ 184 to 738 µM).

For the molecule `CC(C)CCn1c2c(c3ccccc31)CCN1C(=O)c3ccccc3N(C)C21` (centres unmarked) [2-8, N13-Isopentylevodiamine], the melting point was in the range of 108 to 110 °C. Further, in “physchem [1]”, the solubility was more than 150 µg/mL. Further, in “physchem [2]”, the solubility is more than 373 µg/mL.

For the molecule `COCCOCCn1c2c(c3ccccc31)CCN1C(=O)c3ccccc3N(C)C21` (centres unmarked) [2-17, N13-(2-(2-Methoxyethoxy)ethyl)evodiamine], the melting point is 116 to 118 °C. Moreover, the solubility in “physchem [1]” was 60 µg/mL (≈ 148 µM). The amount in solution in “physchem [2]” (solubility) came to 148 µg/mL (≈ 365 µM).

`CN1c2ccccc2C(=O)N2CCc3c(n(CCCCCn4c5c(c6ccccc64)CCN4C(=O)c6ccccc6N(C)C54)c4ccccc34)C21` (centres unmarked) [3-1, 1,5-Bis-(evodiamin-N13-yl)pentane] had a melting point of 217 to 219 °C. The solubility in “physchem [1]” was more than 120 µg/mL. The molecule also registered a solubility in the data set “physchem [2]” of more than 350 µg/mL.

Take `CCOC(=O)CCn1c2c(c3ccccc31)CCN1C(=O)c3ccccc3N(C)C21` (centres unmarked) [2-22, N13-(2-(Ethoxycarbonyl)ethyl)evodiamine]: the solubility in “physchem [1]” was more than 120 µg/mL; in the data set “physchem [2]”, 265 µg/mL (≈ 657 µM).

Molecule `CN1c2ccccc2C(=O)N2CCc3c(n(CCCc4ccccc4)c4ccccc34)C21` (centres unmarked) [2-6, N13-(3-Phenylpropyl)evodiamine] had a melting point of 158 to 160 °C. For the same molecule, the solubility in the data set “physchem [1]” is 60 µg/mL (≈ 142 µM). The same molecule yielded a solubility in “physchem [2]” of 142 µg/mL (≈ 338 µM).

The molecule `C=CCn1c2c(c3ccccc31)CCN1C(=O)c3ccccc3N(C)C21` (centres unmarked) [2-1, N13-Allylevodiamine] registered a melting point of 163 to 165 °C. This molecule returned a solubility in the data set “physchem [1]” of 60 µg/mL (≈ 175 µM). In the data set “physchem [2]”, this molecule registered a solubility of 175 µg/mL (≈ 510 µM).

In turn, `CCOC(=O)CCCn1c2c(c3ccccc31)CCN1C(=O)c3ccccc3N(C)C21` (centres unmarked) [2-23, N13-(3-(Ethoxycarbonyl)propyl)evodiamine] displayed a melting point of 265 to 268 °C. This molecule also had a solubility in the data set “physchem [1]” of 30 µg/mL (≈ 71.9 µM). This molecule also registered a solubility in the data set “physchem [2]” of 71.9 µg/mL (≈ 172 µM).

With `CN1c2ccccc2C(=O)N2CCc3c(n(CC=O)c4ccccc34)C21` (centres unmarked) [compound 6, 2-(Evodiamin-N13-yl)acetaldehyde], the solubility in “physchem [1]” was 60 µg/mL (≈ 174 µM); in “physchem [2]”, 174 µg/mL (≈ 503 µM).

`CCOC(=O)CCCCn1c2c(c3ccccc31)CCN1C(=O)c3ccccc3N(C)C21` (centres unmarked) [2-28, N13-(4-(Ethoxycarbonyl)butyl)evodiamine] yielded a melting point of 251 to 253 °C. Besides, in the data set “physchem [1]”, the solubility was 89.4 µg/mL (≈ 207 µM). The same molecule showed a solubility in “physchem [2]” of 166 µg/mL (≈ 384 µM).

In the case of `CCCCn1c2c(c3ccccc31)CCN1C(=O)c3ccccc3N(C)C21` (centres unmarked) [2-2, N13-Butylevodiamine], the melting point is 141 to 143 °C. In addition, the solubility in “physchem [1]” is more than 120 µg/mL. For the same molecule, in “physchem [2]”, the solubility is more than 334 µg/mL.

The molecule `CC(=O)OCCn1c2c(c3ccccc31)CCN1C(=O)c3ccccc3N(C)C21` (centres unmarked) [2-19, N13-(2-Acetoxyethyl)evodiamine] displayed a melting point of 211 to 213 °C. The same molecule gave a solubility in the data set “physchem [1]” of more than 120 µg/mL. The same molecule showed a solubility in the data set “physchem [2]” of 308 µg/mL (≈ 791 µM).

Consider `CN1c2ccccc2C(=O)N2CCc3c(n(CCCCCl)c4ccccc34)C21` (centres unmarked) [2-11, N13-(4-Chlorobutyl)evodiamine], for which the melting point was 127 to 129 °C. In addition, the solubility in “physchem [1]” was 98 µg/mL (≈ 249 µM). Further, the concentration in solution in “physchem [2]” (solubility) was 273 µg/mL (≈ 693 µM).

Regarding `CN1c2ccccc2C(=O)N2CCc3c(n(CC=NO)c4ccccc34)C21` (centres unmarked) [6-1, 2-(Evodiamin-N13-yl)acetaldehyde oxime], the solubility was 60 µg/mL (≈ 166 µM) in the data set “physchem [1]” and 167 µg/mL (≈ 463 µM) in the data set “physchem [2]”.

Turning to `CN1c2ccccc2C(=O)N2CCc3c(n(CC4CO4)c4ccccc34)C21` (centres unmarked) [2-24, N13-((Oxiran-2-yl)methyl)evodiamine], the melting point lay within 189 to 191 °C. In “physchem [1]”, the solubility is 20 µg/mL (≈ 55.6 µM). This molecule also yielded a solubility in “physchem [2]” of 55.7 µg/mL (≈ 155 µM).

For the molecule `CN1c2ccccc2C(=O)N2CCc3c(n(CCCCCBr)c4ccccc34)C21` (centres unmarked) [2-26, N13-(5-Bromopentyl)evodiamine], the solubility in the data set “physchem [1]” was 67.8 µg/mL (≈ 150 µM); in the data set “physchem [2]” it was 132 µg/mL (≈ 292 µM).

With `CCC(=O)OCCn1c2c(c3ccccc31)CCN1C(=O)c3ccccc3N(C)C21` (centres unmarked) [2-21, N13-(2-Propionyloxyethyl)evodiamine], the melting point was 205 to 206 °C. The molecule further displayed a solubility in the data set “physchem [1]” of more than 120 µg/mL. In the data set “physchem [2]”, this molecule displayed a solubility of more than 308 µg/mL.

`CCOC(Cn1c2c(c3ccccc31)CCN1C(=O)c3ccccc3N(C)C21)OCC` (centres unmarked) [2-18, N13-(2,2-Diethoxyethyl)evodiamine] had a melting point of 117 to 119 °C. The same molecule came in with a solubility in “physchem [1]” of more than 120 µg/mL. This molecule had a solubility in the data set “physchem [2]” of 286 µg/mL (≈ 682 µM).

Consider `COCCn1c2c(c3ccccc31)CCN1C(=O)c3ccccc3N(C)C21` (centres unmarked) [2-14, N13-(2-Methoxyethyl)evodiamine], for which the melting point is 166 to 168 °C. For the same molecule, the solubility in “physchem [1]” is 15 to 30 µg/mL (≈ 41.5 to 83 µM). Besides, the solubility in the data set “physchem [2]” is 41.6 to 83.1 µg/mL (≈ 115 to 230 µM).
